Literature values as cited in patent US12473303B2, “4-[[(7-aminopyrazolo[1,5-a]pyrimidin-5-yl)amino methyl]piperidin-3-ol compounds and their therapeutic use” (CARRICK THERAPEUTICS LIMITED, priority 2019, dated 2025).
pIC50: −log10 of the molar value. “Also recorded” adds a separate entry of the source.

Experiments:
HeLa and A549 cells = conditions: Table 2, cited from earlier work
Cyclin K = tested on: Cyclin K; parameters: key to Cyclin K Degrader Activity: −: No Cyclin K degradation.; +: Weak Cyclin K degradation.; ++: Moderate Cyclin K degradation.; +++: Strong Cyclin K degradation; conditions: cited from earlier work

CN(C)C/C=C/C(=O)Nc1ccc(C(=O)N2CCC[C@@H](Nc3ncc(Cl)c(-c4c[nH]c5ccccc45)n3)C2)cc1 [THZ-531]
pIC50 (HeLa and A549 cells; derived from published data in HeLa and A549 cells, read-out: Cellular Potency IC50): 6.68 | Ratio of Biochemical Potency: Cellular Potency (HeLa and A549 cells; derived from published data): 0.74 | Cyclin K Degrader Activity (Cyclin K; Table 2, derived from published data in HeLa and A549 cells): − | Cyclin K degradation (in words) (Cyclin K; literature): not cyclin K degraders; also recorded: did not cause cyclin K degradation
